In patent US10174050B2, “Spiroisoxazoline compounds having an activity potentiating the activity of an antibiotic” (priority 2012, dated 2019):
≈ marks a conversion by molar mass, not a printed value.

Legend:
[1] = test system: macrophages infected by M. tuberculosis; assay: Potentiation of ethionamide cell test (HCS); assay type: cell-based; conditions: ligand concentration necessary to potentiate ten times the activity of ethionamide (inhibit 50% of bacterial growth), constant ethionamide 0.1 μg/mL (1/10th of its CMI99)
[2] = physchem; assay type: physicochemical; conditions: pH 7.4, aqueous buffer, kinetic from dmso stock
Procedure: 40 μL of a 10 mM solution in DMSO of the sample are added to 1.96 mL MeOH or PBS at pH 7.4. The samples are then agitated during 24 h at RT, centrifuged during 5 min and then filtrated on filters of 0.45 μm pore size. 20 μL of each solution are then added to 180 μL MeOH and then analyzed by LC-MS. The solubility is determined as ratio of the surfaces of the mass signals PBS/MeOH.

`O=C(CCC(F)(F)F)N1CCC2(CC(c3ccccc3)=NO2)C1` (stereo not shown) [Compound 4] showed an EC50 [1] of 530 nM.

Compound `O=C(CCC(F)(F)F)N1CC2(CC(c3ccccc3)=NO2)C1` [Compound 5] has an EC50 [1] of 110 nM.

For `O=C(CCC(F)(F)F)N1CCC2(CC1)CC(c1cccs1)=NO2` [Compound 6], the EC50 [1] was 30 nM.

Work on `O=C(CCC(F)(F)F)N1CCC2(CC1)CC(c1nccs1)=NO2` [Compound 7] yielded an EC50 [1] of 40 nM.

`CC(C)CCC(=O)N1CCC2(CC1)CC(c1cccs1)=NO2` [Compound 8] showed an EC50 [1] of 130 nM.

Compound `O=C(CCCC(F)(F)F)N1CCC2(CC1)CC(c1nccs1)=NO2` [Compound 9] has an EC50 [1] of 70 nM.

In the case of `O=C(CCC(F)(F)F)N1CCC2(CC1)CC(c1ccccc1)=NO2` [Compound 10], the solubility at 24 h [2] is reported as 150 µM (≈ 51.1 µg/mL) and the EC50 [1] is reported as 20 nM.

`Cc1ccc(C2=NOC3(CCN(C(=O)CCC(F)(F)F)CC3)C2)cc1` [Compound 11] showed an EC50 [1] of 2500 nM.

`COc1ccccc1C1=NOC2(CCN(C(=O)CCC(F)(F)F)CC2)C1` [Compound 14] gave an EC50 [1] of 20 nM.

For `COc1cccc(C2=NOC3(CCN(C(=O)CCC(F)(F)F)CC3)C2)c1` [Compound 15], the EC50 [1] was 290 nM.

For `O=C(CCC(F)(F)F)N1CCC2(CC1)CC(c1ccc3c(c1)OCO3)=NO2` [Compound 18], the EC50 [1] was 1300 nM.

With `O=C(CCC(F)(F)F)N1CCC2(CC1)CC(c1ccccc1Cl)=NO2` [Compound 20] the EC50 [1] was 30 nM.

For `O=C(CCC(F)(F)F)N1CCC2(CC1)CC(c1ccc(Cl)cc1)=NO2` [Compound 21], the EC50 [1] was 5800 nM.

Compound `O=C(CCC(F)(F)F)N1CCC2(CC1)CC(c1ccc(F)cc1)=NO2` [Compound 22] has an EC50 [1] of 500 nM.

For `O=C(CCC(F)(F)F)N1CCC2(CC1)CC(c1cccc(C(F)(F)F)c1)=NO2` [Compound 23], the EC50 [1] was 400 nM.

Work on `O=C(CCC(F)(F)F)N1CCC2(CC1)CC(C1CCCCC1)=NO2` [Compound 27] yielded an EC50 [1] of 80 nM.

With `O=C(CCC(F)(F)F)N1CCC2(CC1)CC(C1CCCC1)=NO2` [Compound 28] the EC50 [1] was 80 nM.

Compound `O=C(CCC(F)(F)F)N1CCC2(CC1)CC(Cc1ccccc1)=NO2` [Compound 29] has an EC50 [1] of 20 nM.

With `O=C(CCC(F)(F)F)N1CCC2(CC1)CC(c1ccco1)=NO2` [Compound 30] the EC50 [1] was 50 nM.

In the case of `O=C(CCC(F)(F)F)N1CCC2(CC1)CC(c1ccccn1)=NO2` [Compound 31], the EC50 [1] is reported as 150 nM.

With `CC(C)CCC(=O)N1CCC2(CC1)CC(c1ccccc1)=NO2` [Compound 32] the EC50 [1] was 5000 nM.

Compound `CC(C)CCC(=O)N1CCC2(CC1)CC(c1ccccn1)=NO2` [Compound 45] has an EC50 [1] of 1300 nM.

In the case of `CC(C)CCC(=O)N1CCC2(CC1)CC(c1ccccc1Cl)=NO2` [Compound 46], the EC50 [1] is reported as 1300 nM.

With `COc1ccccc1C1=NOC2(CCN(C(=O)CCC(C)C)CC2)C1` [Compound 49] the EC50 [1] was 630 nM.

Compound `O=C(CCCC(F)(F)F)N1CCC2(CC1)CC(c1ccccc1Cl)=NO2` [Compound 50] has an EC50 [1] of 770 nM.

With `O=C(CCCC(F)(F)F)N1CCC2(CC1)CC(c1ccccc1)=NO2` [Compound 51] the EC50 [1] was 1000 nM.

Work on `O=C(CCc1ccccc1)N1CCC2(CC1)CC(c1ccccc1)=NO2` [Compound 59] yielded an EC50 [1] of 1000 nM.
